Experimental data: ChEMBL document CHEMBL4402552, “The Discovery of 7-Methyl-2-[(7-methyl[1,2,4]triazolo[1,5-a]pyridin-6-yl)amino]-9-(tetrahydro-2H-pyran-4-yl)-7,9-dihydro-8H-purin-8-one (AZD7648), a Potent and Selective DNA-Dependent Protein Kinase (DNA-PK) Inhibitor” (J Med Chem, 2020)
Converted amounts (≈) assume the structure as drawn.

Columns and labels:
[1] = Drug level in mouse hepatocytes treated with 9-(trans-4-Hydroxycyclohexyl)-2-[(4-methoxy-2-methylphenyl)amino]-7-methyl-7,9-dihydro-8H-purin-8-one assessed as compound formation at 5 uM measured after 60 mins by UV-MS analysis; type: ADME, cell-based, Hepatocyte; settings: 1 h
[2] = Drug level in rat hepatocytes treated with 9-(trans-4-Hydroxycyclohexyl)-2-[(4-methoxy-2-methylphenyl)amino]-7-methyl-7,9-dihydro-8H-purin-8-one assessed as compound formation at 5 uM measured after 60 mins by UV-MS analysis; type: ADME, cell-based, Hepatocyte; settings: 1 h
physchem = settings: buffer, pH 7.4
[3] = Apparent permeability across apical to basolateral side in human Caco2 cells in absence of efflux inhibitor by ABBA assay; type: ADME, cell-based; settings: Caco-2
[4] = Intrinsic clearance in human microsomes; type: ADME, Microsome
[5] = Dissociation constant, pKa of the compound; type: physicochemical
[6] = Drug metabolism in rat hepatocytes assessed as dealkylation at 5 uM measured after 60 mins by UV-MS analysis; type: ADME, cell-based, Hepatocyte; settings: 1 h
[7] = Drug metabolism in mouse hepatocytes assessed as dealkylation and oxidation by measuring iminoquinone formation at 5 uM measured after 60 mins by UV-MS analysis; type: ADME, cell-based, Hepatocyte; settings: 1 h
[8] = Drug metabolism in human hepatocytes assessed as dealkylation at 5 uM measured after 60 mins by UV-MS analysis; type: ADME, cell-based, Hepatocyte; settings: 1 h
[9] = Drug metabolism in mouse hepatocytes assessed as dealkylation at 5 uM measured after 60 mins by UV-MS analysis; type: ADME, cell-based, Hepatocyte; settings: 1 h
[10] = Drug metabolism in rat hepatocytes assessed as dealkylation and oxidation by measuring iminoquinone formation at 5 uM measured after 60 mins by UV-MS analysis; type: ADME, cell-based, Hepatocyte; settings: 1 h
[11] = Cmax in ATM knock out human FADU cells xenografted SCID mouse at 100 mg/kg, po qd measured after 2 hrs; type: ADME, organism-based; settings: in vivo, read-out: T>IC50
[12] = Time at which plasma concentration stays above in vitro IC50 for inhibition of DNA-PK in human A549 cells in SCID mouse at 100 mg/kg, po qd; type: organism-based; settings: in vivo
[13] = Oral bioavailability in Beagle dog at 2 mg/kg; type: ADME, organism-based, Canis lupus familiaris; settings: in vivo
[14] = Volume of distribution at steady state in Beagle dog at 1 mg/kg, iv or 2 mg/kg, po; type: ADME, organism-based, Canis lupus familiaris; settings: in vivo, read-out: Vdss
[15] = Oral bioavailability in Han Wistar rat at 5 mg/kg; type: ADME, organism-based; settings: in vivo
[16] = Free plasma concentration in SCID mouse at 100 mg/kg, po qd measured after 10 hrs; type: ADME, organism-based; settings: in vivo
[17] = Volume of distribution at steady state in Han Wistar rat at 2 mg/kg, iv or 5 mg/kg, po; type: ADME, organism-based; settings: in vivo, read-out: Vdss
[18] = Solubility of the compound in fasted state simulated intestinal fluid using crystalline sample; type: physicochemical
[19] = Solubility of the compound in simulated gastric fluid using crystalline sample; type: physicochemical

| SMILES | logD (physchem) | Papp A→B [3] [×10⁻⁶ cm/s] | other results |
| --- | --- | --- | --- |
| NC1=C(C(=O)c2ccccc2)/C(=N/c2ccccc2C(=O)c2ccccc2)C=CC1=O |  |  | Drug uptake [1]: Metabolite_Detected; Drug uptake [2]: Metabolite_Detected |
| COc1ccc(Nc2ncc3c(n2)n(C2CCCCC2)c(=O)n3C)c(C)c1 | 4.1 |  |  |
| Cc1cc2ncnn2cc1Nc1ncc2c(n1)n(C1CCC(F)(F)CC1)c(=O)n2C | 2 | 23 | microsomal CLint [4]: 68 µL/min/mg |
| COc1ccc(Nc2ncc3c(n2)n(-c2ccccc2)c(=O)n3C)c(C)c1 | 2.8 |  |  |
| Cc1cc2nccn2cc1Nc1ncc2c(n1)n(C1CCOCC1)c(=O)n2C |  | 11 | pKa [5]: 7.1 |
| COc1ccc(Nc2ncc3c(n2)n(C2CCCC2)c(=O)n3C)c(C)c1 | 3.7 |  |  |
| Cc1cc2ncnn2cc1Nc1ncc2c(n1)n([C@H]1CC[C@@](C)(O)CC1)c(=O)n2C | 1.9 | 24 | pKa [5]: 3.6 |
| Cc1cc2ncnn2cc1Nc1ncc2c(n1)n(C1CCCCC1)c(=O)n2C | 3.1 | 24 | microsomal CLint [4]: 93 µL/min/mg |
| Cc1cc2ncnn2cc1Nc1ncc2c(n1)n([C@H]1CC[C@](C)(O)CC1)c(=O)n2C | 1.1 | 0.7 |  |
| Cc1cc2ncnn2cc1Nc1ncc2c(n1)n(C1CCOCC1)c(=O)n2C [AZD-7648] | 1.3 | 22 | Cmax [11]: 17 µM; Time [12]: > 12 h; bioavailability [13]: 93%; Vd [14]: 0.7 L/kg; pKa [5]: 3.4; bioavailability [15]: 104%; Cp(f) [16]: > 1 µM; Vd [17]: 1.4 L/kg; solubility thermodynamic [18]: 180 µM (≈ 68.5 µg/mL); solubility thermodynamic [19]: > 10000 µM |

Further lines, with some results ahead:

| logD (physchem) | Papp A→B [3] [×10⁻⁶ cm/s] | SMILES | other results |
| --- | --- | --- | --- |
| 1.3 | 0.4 | Cc1cc2ncnn2cc1Nc1ncc2c(n1)n([C@H]1CC[C@H](O)CC1)c(=O)n2C |  |
| 2.5 |  | Cc1ccccc1Nc1ncc2c(n1)n([C@H]1CC[C@H](O)CC1)c(=O)n2C |  |
| 2.4 |  | Cn1c(=O)n([C@H]2CC[C@H](O)CC2)c2nc(Nc3ccccc3)ncc21 |  |
| 2.3 |  | COc1ccc(Nc2ncc3[nH]c(=O)n([C@H]4CC[C@H](O)CC4)c3n2)c(C)c1 |  |
| 2.3 |  | COc1ccc(Nc2ncc3c(n2)n([C@H]2CC[C@H](O)CC2)c(=O)n3C)cc1 |  |
| 2.6 |  | COc1ccc(C)c(Nc2ncc3c(n2)n([C@H]2CC[C@H](O)CC2)c(=O)n3C)c1 |  |
| 1.2 |  | Cc1c(Nc2ncc3c(n2)n([C@H]2CC[C@H](O)CC2)c(=O)n3C)ccc2nccn12 |  |
| 1.8 |  | Cn1c(=O)n([C@H]2CC[C@H](O)CC2)c2nc(Nc3ccc4nccn4c3)ncc21 |  |
| 1.4 | 0.4 | Cc1cc2nccn2cc1Nc1ncc2c(n1)n([C@H]1CC[C@H](O)CC1)c(=O)n2C |  |
| 2.3 |  | COc1ccc(Nc2ncc3c(n2)n([C@H]2CC[C@H](O)CC2)c(=O)n3C)c(C)c1 | Drug metabolism [6]: Metabolite_Detected; Drug metabolism [7]: Metabolite_Detected; Drug metabolism [8]: Metabolite_Detected; Drug metabolism [9]: Metabolite_Detected; microsomal CLint [4]: 49 µL/min/mg; Drug metabolism [10]: Metabolite_Detected |
| 1.7 |  | Cn1c(=O)n([C@H]2CC[C@H](O)CC2)c2nc(Nc3ccc4ncnn4c3)ncc21 |  |
